The source of these data is ChEMBL document CHEMBL3407412, “Synthesis and bioevaluation of pyrazole-benzimidazolone hybrids as novel human 4-Hydroxyphenylpyruvate dioxygenase inhibitors” (Eur J Med Chem, 2015).

Sequence of 4-hydroxyphenylpyruvate dioxygenase (P32754 whole entry): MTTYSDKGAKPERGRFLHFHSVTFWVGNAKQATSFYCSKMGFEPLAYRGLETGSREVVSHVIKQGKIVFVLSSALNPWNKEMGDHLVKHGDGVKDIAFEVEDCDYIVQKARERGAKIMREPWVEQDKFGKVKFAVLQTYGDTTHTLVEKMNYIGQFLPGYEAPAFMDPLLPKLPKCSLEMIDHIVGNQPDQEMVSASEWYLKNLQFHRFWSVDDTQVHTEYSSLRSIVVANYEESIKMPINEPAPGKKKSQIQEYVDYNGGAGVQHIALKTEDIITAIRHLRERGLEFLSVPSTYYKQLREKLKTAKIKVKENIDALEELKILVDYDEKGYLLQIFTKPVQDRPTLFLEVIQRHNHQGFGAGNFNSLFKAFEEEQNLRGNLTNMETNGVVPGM

The experiment concerns the target 4-hydroxyphenylpyruvate dioxygenase (Homo sapiens, UniProt P32754). Put plainly: Inhibition of human recombinant His-tagged HPPD expressed in Escherichia coli BL21(DE3) by UV/visible plate reader analysis.
For orientation: IC50 means the midpoint of a concentration-inhibition curve. Take `CCCCn1c(=O)n(C)c2ccc(C(=O)c3cnn(C)c3O)cc21`: the IC50 worked out at 170 nM. With `Cn1ncc(C(=O)c2ccc3c(c2)n(C(C)(C)C)c(=O)n3C)c1O` the figure was 100 nM; with `Cc1ccc(-n2c(=O)n(C)c3ccc(C(=O)c4cnn(C)c4O)cc32)cc1`, 250 nM. With `CCCn1c(=O)n(CC)c2cc(C(=O)c3cnn(C)c3O)ccc21` the figure was 39 nM; with `Cc1nn(C)c(O)c1C(=O)c1ccc2c(c1)n(CC(C)C)c(=O)n2C`, 2710 nM. The same measure for `Cc1nn(C)c(O)c1C(=O)c1ccc2c(c1)n(Cc1ccccc1)c(=O)n2C`: 670 nM.
